Test results taken from patent US20040122068A1, “Pramipexole for the treatment of HIV dementia” (Boehringer Ingelheim Pharma GmbH & Co. KG, priority 2002, published 2004).

Legend:
isolated mitochondria = assay: In vitro mitochondria test: H2O2 formation of isolated mitochondria (amplexRed/horseradish peroxidase kinetic test); assay type: biochemical; settings: for Quantity of H2O2 formed: 5 mM succinate alone = 100.0
From the text: A. The Reduced H2O2 Formation of Isolated Mitochondria as In Vitro Parameters for Endogenous Radical Stress:
Mitochondria reduce 95% of the oxygen to water.
Overproduction and/or reduced detoxification of superoxide anion and hydrogen peroxide leads to the development of oxidative stress. This is crucially implicated in neuronal cell death in all kinds of neurodegenerative diseases.
In the presence of the energy substrate succinate, isolated mitochondria produce H2O2, which results from the dismutation of superoxide anion. In the presence of amplexRed™ and horseradish peroxidase, the fluorogenic chromophor resorufin is formed, which is measured and quantified in a kinetic test. The quantity of H2O2 formed by the mitochondria can be increased by the addition of the quinone analogue duroquinone.

aconitase = settings: mice, oral, 4 days, 2×1 mg/kg/d; brain mitochondria; control (0.9% saline) 100±8%; n=4
Procedure: Mice (C57BL6) were treated with pramipexole by oral route for 4 days in a dose of 2×1 mg/kg KG/d. The animals were then anaesthetised, killed, their brains were removed and the mitochondria (location of the enzyme and site of the radical formation) were isolated. Then the activity was determined by means of a coupled optical test.

| Quantity of H2O2 formed (isolated mitochondria; 5 mM succinate + 3 μM duroquinone + 100 μM pramipexole) | duroquinone-induced formation of H2O2 reduced to (isolated mitochondria; summary of Table 1) | SMILES | Quantity of H2O2 formed (isolated mitochondria; 5 mM succinate + 3 μM duroquinone) | aconitase activity (aconitase) |
| --- | --- | --- | --- | --- |
| – | – | CC1=C(C)C(=O)C(C)=C(C)C1=O [duroquinone] | 152.2 ± 1.4% | – |
| 58.3 ± 24.6% | 50-60% | CCCNC1CCc2nc(N)sc2C1 (stereo not shown) [pramipexole, 2-amino-4,5,6,7-tetrahydro-6-n-propylamino-benzothiazole] | – | 153±16% |
